Assay [1] addresses T1, cathepsin D (from human liver) (Homo sapiens, UniProt P07339).
T1 construct: cathepsin D (from human liver, Calbiochem); purchased Calbiochem; host or cells: human liver
The assay can be described thus: Cathepsin D fluorescent substrate kinetic assay. It counts as biochemical. The following applies: pH 5.5. An excerpt: (§1) Cathepsin D and Cathepsin E Fluorescent Substrate Kinetic Assays
The MR121 fluorescence assays described below are based on the fact that MR121 forms a non-fluorescent ground state complex with tryptophan. In solution this formation occurs at millimolar concentrations of tryptophan. The mechanism can be used to design a generic biochemical assay for proteases. A substrate peptide is labeled at the N-terminus with tryptophan and at the C-terminus with the fluorophore MR121 (for cathepsin D the 10 amino acid peptide […]-MR121 was used; for cathepsin E, MR121-[…] was used). In absence of protease activity, the substrates remain intact and the MR121 fluorescence is reduced by the high local Trp-concentration. If the substrates are cleaved by the enzymes the MR121 fluorescence is recovered.
The fluorescent substrate cathepsin D and cathepsin E kinetic assays were performed at room temperature in 384-well microtiter plates (black with clear flat bottom, non binding surface plates from Corning) in a final volume of 51 μl. The test compounds were serially diluted in DMSO (15 concentrations, 1/3 dilution steps) and 1 μl of diluted compounds were mixed for 10 min with 40 μl of cathepsin D (from human liver, Calbiochem) diluted in assay buffer (100 mM sodium acetate, 0.05% BSA, pH 5.5; final concentration: 200 nM) or with 40 μl of recombinant human cathepsin E (R&D Systems) diluted in assay buffer (100 mM sodium acetate, 0.05% BSA, pH 4.5; final concentration: 0.01 nM). After addition of 10 μl of the cathepsin D substrate […]-MR121 diluted in cathepsin D assay buffer (final concentration: 300 nM) or 10 µl of the cathepsin E substrate MR121-[…] diluted in cathepsin E assay buffer (final concentration: 300 nM), the plates were strongly shaken for 2 minutes. The enzymatic reaction was followed in a plate: vision reader (Perkin Elmer) (excitation wavelength: 630 nm; emission: 695 nm) for at least 30 minutes in a kinetic measurement detecting an increase of MR121 fluorescence during the reaction time. The slope in the linear range of the kinetic was calculated and the IC50 of the test compounds were determined using a four parameter equation for curve fitting.

For assay [2], the target named is T2, BACE2 (Rattus norvegicus, UniProt Q6IE75).
T2 construct: endogenous cellular BACE2 in the Ins1e rat cell line; endogenous in cells; host or cells: INS-TMEM27 (INS1e-derived rat cell line with TetOn-inducible full-length hTMEM27)
T2 sequence (Q6IE75 63-514): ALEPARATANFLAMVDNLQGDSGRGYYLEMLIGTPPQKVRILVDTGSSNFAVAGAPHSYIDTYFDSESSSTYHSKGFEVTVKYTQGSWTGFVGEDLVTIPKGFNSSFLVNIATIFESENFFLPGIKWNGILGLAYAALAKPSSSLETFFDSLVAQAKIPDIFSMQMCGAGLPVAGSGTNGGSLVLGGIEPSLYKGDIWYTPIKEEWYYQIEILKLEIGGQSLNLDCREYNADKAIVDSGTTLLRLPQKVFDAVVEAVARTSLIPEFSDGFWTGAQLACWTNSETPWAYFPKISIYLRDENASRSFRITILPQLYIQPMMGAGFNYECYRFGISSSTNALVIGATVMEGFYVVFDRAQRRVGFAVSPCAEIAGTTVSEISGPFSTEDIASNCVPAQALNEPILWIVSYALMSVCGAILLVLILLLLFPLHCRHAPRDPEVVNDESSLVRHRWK
The assay can be described thus: Assay for BACE inhibition by measuring cellular TMEM27 cleavage. The format is cell-based. The note with it: INS-TMEM27 cells (INS1e-derived); shed TMEM27 by ELISA; read-out: BACE2 cell act. IC50. In a few lines:
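Ins1e-derived INS-TMEM27 rat cells with doxycycline-inducible full-length human TMEM27; inhibitor added 2 h before doxycycline (500 ng/ml final), then 46 h at 37 °C. Shed TMEM27 in supernatant quantified by sandwich ELISA with anti-human-TMEM27 antibodies; EC50 from curve fit across inhibitor concentrations.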

Assay [3] can be described thus: in vivo effect. The following applies: po; % of control @ 30 mg/kg p.o.
For assay [4], the target named is T3, recombinant human cathepsin E (Homo sapiens, UniProt P14091).
T3 construct: purchased R&D Systems
T3 sequence (P14091 54-396): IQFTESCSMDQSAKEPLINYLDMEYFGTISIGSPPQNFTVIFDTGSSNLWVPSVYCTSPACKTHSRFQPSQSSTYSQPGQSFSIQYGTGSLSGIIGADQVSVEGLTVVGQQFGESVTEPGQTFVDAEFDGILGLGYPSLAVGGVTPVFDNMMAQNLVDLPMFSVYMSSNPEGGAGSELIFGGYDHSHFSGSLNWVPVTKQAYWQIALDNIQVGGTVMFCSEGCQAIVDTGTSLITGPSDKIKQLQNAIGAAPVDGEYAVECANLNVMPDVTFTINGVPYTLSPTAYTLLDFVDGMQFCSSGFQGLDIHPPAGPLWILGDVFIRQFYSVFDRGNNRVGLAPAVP
The assay can be described thus: Cathepsin E fluorescent substrate kinetic assay. It counts as biochemical. The following applies: pH 4.5.
Source text: as §1
The MR121 fluorescence assays described below are based on the fact that MR121 forms a non-fluorescent ground state complex with tryptophan. In solution this formation occurs at millimolar concentrations of tryptophan. The mechanism can be used to design a generic biochemical assay for proteases. […] In absence of protease activity, the substrates remain intact and the MR121 fluorescence is reduced by the high local Trp-concentration. If the substrates are cleaved by the enzymes the MR121 fluorescence is recovered.
The fluorescent substrate cathepsin D and cathepsin E kinetic assays were performed at room temperature in 384-well microtiter plates (black with clear flat bottom, non binding surface plates from Corning) in a final volume of 51 μl. The test compounds were serially diluted in DMSO (15 concentrations, 1/3 dilution steps) and 1 μl of diluted compounds were mixed for 10 min with 40 μl of cathepsin D (from human liver, Calbiochem) diluted in assay buffer (100 mM sodium acetate, 0.05% BSA, pH 5.5; final concentration: 200 nM) or with 40 μl of recombinant human cathepsin E (R&D Systems) diluted in assay buffer (100 mM sodium acetate, 0.05% BSA, pH 4.5; final concentration: 0.01 nM). […] The enzymatic reaction was followed in a plate: vision reader (Perkin Elmer) (excitation wavelength: 630 nm; emission: 695 nm) for at least 30 minutes in a kinetic measurement detecting an increase of MR121 fluorescence during the reaction time. The slope in the linear range of the kinetic was calculated and the IC50 of the test compounds were determined using a four parameter equation for curve fitting.

Structures are written as SMILES.

T1 sequence (P07339 65-412): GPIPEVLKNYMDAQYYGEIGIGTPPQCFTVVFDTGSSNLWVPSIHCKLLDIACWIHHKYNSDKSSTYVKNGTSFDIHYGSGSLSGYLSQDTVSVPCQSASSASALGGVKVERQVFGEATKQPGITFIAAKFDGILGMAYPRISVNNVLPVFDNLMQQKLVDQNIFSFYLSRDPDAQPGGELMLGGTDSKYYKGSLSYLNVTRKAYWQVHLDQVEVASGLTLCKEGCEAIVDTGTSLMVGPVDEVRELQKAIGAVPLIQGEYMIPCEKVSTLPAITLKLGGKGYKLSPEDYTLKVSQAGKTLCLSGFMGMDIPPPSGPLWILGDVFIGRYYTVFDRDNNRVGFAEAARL

The IC50 is the concentration needed to halve the response being measured. In the case of `C[C@]1(c2cc(NC(=O)c3ccc(C#N)cn3)ccc2F)N=C(N)OCC1(F)F` [Example 11, 5-Cyano-pyridine-2-carboxylic acid [3-((R)-2-amino-5,5-difluoro-4-methyl-5,6-dihydro-4H-[1,3]oxazin-4-yl)-4-fluoro-phenyl]-amide], the IC50 in assay [1] was 69 µM; in assay [2], 0.074 µM; in assay [4], 73 µM. In assay [3], this compound registered a response vs control in vivo at 30 mg/kg of less than 50%.

These data come from patent US8389513B2, “2-amino-5,5-difluoro-5,6-dihydro-4H-[1,3]oxazin-4-yl)-phenyl]-amides” (Hoffmann-La Roche Inc., priority 2009, dated 2013).
